Assay results from the NIST ThermoML archive (doi:10.1021/acs.jced.8b00537).
Numbers after ± are expanded uncertainties.

Settings: 100 kPa, Liquid; for viscosity: Capillary tube (Ostwald / Ubbelohde) method; for speed of sound: Frequency=3 MHz, Single path-length method; for mass density: Vibrating tube method

O=S(=O)([N-]S(=O)(=O)C(F)(F)F)C(F)(F)F.On1cc[n+](O)c1 [1,3-dihydroxyimidazolium bis(trifluoromethylsulfonyl)imide]
Settings	mass density [kg/m3]	speed of sound [m/s]	viscosity [mPa·s]
293.15 K	1746.4 ± 4.3	1208.2 ± 6.3	238.6 ± 20
298.15 K	1740.44 ± 4.3	1196.6 ± 6.3	171.83 ± 14
303.15 K	1734.52 ± 4.3	1185.2 ± 6.3	127.52 ± 10
308.15 K	1728.64 ± 4.3	1174.1 ± 6.3	96.92 ± 7.9
313.15 K	1722.79 ± 4.2	1163.1 ± 6.3	75.56 ± 6.1
318.15 K	1716.97 ± 4.2	1152.3 ± 6.3	59.8 ± 4.8
323.15 K	1711.19 ± 4.2	1141.6 ± 6.3	48.29 ± 3.9
328.15 K	1705.44 ± 4.2	1131.1 ± 6.3	39.57 ± 3.2
333.15 K	1699.71 ± 4.2	1120.7 ± 6.3	32.88 ± 2.7
338.15 K	1694.01 ± 4.2	1110.4 ± 6.3	27.69 ± 2.2
343.15 K	1688.34 ± 4.1	1100.2 ± 6.3	23.59 ± 1.9

C=CCn1cc[n+](C)c1.O=S(=O)([N-]S(=O)(=O)C(F)(F)F)C(F)(F)F
Settings	mass density [kg/m3]	speed of sound [m/s]	viscosity [mPa·s]
278.15 K	1520.13 ± 3.2	1286.6 ± 6.2	–
283.15 K	1514.97 ± 3.2	1274.9 ± 6.2	–
288.15 K	1509.81 ± 3.2	1263.1 ± 6.2	–
293.15 K	1504.69 ± 3.2	1251.6 ± 6.2	41.83 ± 3.4
298.15 K	–	1240.2 ± 6.2	–
303.15 K	1494.52 ± 3.2	1228.9 ± 6.2	28.51 ± 2.3
308.15 K	1489.48 ± 3.2	1217.8 ± 6.2	23.96 ± 1.9
313.15 K	1484.45 ± 3.2	1206.8 ± 6.2	20.41 ± 1.6
318.15 K	1479.44 ± 3.2	1196 ± 6.2	17.51 ± 1.4
323.15 K	1474.45 ± 3.1	1185.2 ± 6.2	15.19 ± 1.2
328.15 K	1469.5 ± 3.1	1174.7 ± 6.2	13.23 ± 1.1
333.15 K	1464.56 ± 3.1	1164.2 ± 6.2	11.62 ± 0.93
338.15 K	1459.65 ± 3.1	1153.8 ± 6.2	10.28 ± 0.83
343.15 K	1454.75 ± 3.1	1143.5 ± 6.2	9.125 ± 0.73
